Experimental data: patent EP4603105A1, “PHARMACEUTICAL COMPOSITION CONTAINING CYCLIC COMPOUND HAVING SELECTIVE KRAS INHIBITORY EFFECT AGAINST HRAS AND NRAS” (CHUGAI SEIYAKU KABUSHIKI KAISHA, priority 2022, dated 2024)
Read-outs that look alike come from different tables or passages of the source.

What was measured:
[1] = tested on: human lung cancer strain NCI-H441; assay: NCI-H441 cell proliferation inhibitory activity (CellTiter-Glo, 4 days); format: cell-based; settings: read-out: NCl-H441 IC50
In short: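 Signal came from […] measured per well once the reagent was added. Beforehand, cells were cultured at 37°C and 5% carbon dioxide on a compound series serially diluted in dimethyl sulfoxide.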

[2] = target: GDP-bound NRAS wild-type protein (Homo sapiens, UniProt P01111); assay: Binding to NRAS by surface plasmon resonance (SPR), KD and KD ratio to KRAS
In short: (§1)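 Each cycle, GDP-bound biotin-Avi RAS was captured (~100–300 RU), compound concentrations were injected low to high for 75 s each at 100 µL/min, then the chip was regenerated. Buffer: HBS pH 7.4, 10 mM MgCl2, 10 µM GDP, 1 mM DTT, 4% DMSO; 30°C. KD from a 1:1 binding model.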

[3] = target: GDP-bound KRAS wild-type protein (Homo sapiens, UniProt P01116); assay: Binding to KRAS by surface plasmon resonance (SPR), dissociation constant KD
In short: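 Compound binding is evaluated by SPR single-cycle kinetics, with concentrations added intermittently from low to high for 75 s each. Target surfaces carry GDP-loaded biotinylated Avi-RAS at about 100–300 RU, regenerated after each cycle; temperature 30°C. A 1:1 binding model gives KD.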

[4] = target: HRAS wild-type protein (Homo sapiens, UniProt P01112); assay: Binding to HRAS by surface plasmon resonance (SPR), KD and KD ratio to KRAS
In short: as §1

[5] = ratio of KD for GDP-bound NRAS wild-type protein to KD for KRAS
[6] = ratio of KD for HRAS wild-type protein to KD for KRAS
[7] = 50% proliferation inhibitory concentration, four days
[8] = ratio of KD with respect to GDP-bound NRAS wild-type protein to KD with respect to KRAS
[9] = Single Cycle Kinetics, 1:1 binding model
[10] = ratio of KD with respect to HRAS wild-type protein to KD with respect to KRAS

Sequence of GDP-bound KRAS wild-type protein (P01116 1-188 isoform P01116-2): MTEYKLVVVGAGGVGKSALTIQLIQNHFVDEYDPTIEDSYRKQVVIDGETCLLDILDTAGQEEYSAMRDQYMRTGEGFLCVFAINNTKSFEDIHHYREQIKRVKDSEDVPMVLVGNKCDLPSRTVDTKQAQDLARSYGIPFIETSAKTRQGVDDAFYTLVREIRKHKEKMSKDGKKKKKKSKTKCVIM
Sequence of HRAS wild-type protein (P01112 whole entry): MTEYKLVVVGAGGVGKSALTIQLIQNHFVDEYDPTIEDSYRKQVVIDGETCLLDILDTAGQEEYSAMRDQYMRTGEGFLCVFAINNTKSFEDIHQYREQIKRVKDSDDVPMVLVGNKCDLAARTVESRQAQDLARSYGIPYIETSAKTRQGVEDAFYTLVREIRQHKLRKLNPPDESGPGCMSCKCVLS
Sequence of GDP-bound NRAS wild-type protein (P01111 whole entry): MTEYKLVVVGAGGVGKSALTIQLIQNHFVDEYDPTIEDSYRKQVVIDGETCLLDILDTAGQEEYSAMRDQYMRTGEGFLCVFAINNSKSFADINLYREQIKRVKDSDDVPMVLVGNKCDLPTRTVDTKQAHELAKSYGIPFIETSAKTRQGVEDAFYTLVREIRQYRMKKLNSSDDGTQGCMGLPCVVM

| Structure (SMILES) | IC50 ([1]; NCI-H441 cells, 4 days) [nM] | NRAS /KRAS [2, 5] | Kd ([3]; Single Cycle Kinetics) [nM] | HRAS /KRAS [4, 6] | Kd ([3]; 1:1 binding model) [nM] | IC50 [1, 7] [nM] | NRAS /KRAS [2, 8] | Kd [3, 9] [nM] | HRAS /KRAS [4, 10] |
| --- | --- | --- | --- | --- | --- | --- | --- | --- | --- |
| CCC[C@H]1C(=O)N[C@@H](C2CCCC2)C(=O)N(C)CC(=O)N(C)[C@H]2C/C=C\CCN(C2=O)[C@@H](Cc2ccc(C)cc2)C(=O)N(C)CC(=O)N[C@@H](CCc2ccc(C(F)(F)F)c(Cl)c2)C(=O)N2CC3(CC3)C[C@H]2C(=O)N(C)C2(CCC2)C(=O)N(C)[C@@H](C(CC)CC)C(=O)N(C)[C@H](C(=O)N(C)C)CC(=O)N1C [PP3324] | 16.4 | AA (a compound having 20 or more is denoted as AA) | 0.23 | B (a compound having 3 or more and less than 10 is denoted as B) | – | – | – | – | – |
| CCO[C@@H]1C[C@H]2C(=O)OC3(CCC3)C(=O)N(C)[C@@H](C3CCCC3)C(=O)N(C)[C@H](C(=O)N(C)C)CC(=O)N(C)[C@@H](CC(C)C)C(=O)N[C@@H]([C@@H](C)CC)C(=O)N(C)CC(=O)N(C)[C@H]3C/C=C\CCN(C3=O)[C@@H](Cc3ccc(C(F)(F)F)cc3)C(=O)N(C)CC(=O)N[C@@H](CCc3ccc(C(F)(F)F)c(OC)c3)C(=O)N2C1 [PP3364] | 8.2 | A (a compound having 10 or more and less than 20 is denoted as A) | 0.16 | A (a compound having 10 or more and less than 20 is denoted as A) | – | – | – | – | – |
| CCO[C@@H]1C[C@H]2C(=O)NC3(CC(C)(C)C3)C(=O)N(C)[C@@H](C3CCCC3)C(=O)N(C)[C@H](C(=O)N(C)CC)CC(=O)N(C)[C@@H]([C@@H](C)OC)C(=O)N[C@@H]([C@@H](C)CC)C(=O)N3CCC[C@H]3C(=O)N(C)[C@H]3C/C=C\CCN(C3=O)[C@@H](Cc3ccc(C(F)(F)F)cc3)C(=O)N(C)CC(=O)N[C@@H](CCc3cc(F)c(C(F)(F)F)c(F)c3)C(=O)N2C1 [PP3172] | 69.9 | AA (a compound having 20 or more is denoted as AA) | 0.81 | A (a compound having 10 or more and less than 20 is denoted as A) | – | – | – | – | – |
| CC[C@H](C)[C@@H]1NC(=O)[C@H](COC)N(C)C(=O)C[C@@H](C(=O)N2CCCCC2)N(C)C(=O)[C@H](C2CCCC2)N(C)C(=O)C2(CC(C)(C)C2)NC(=O)[C@@H]2C[C@@H](OC(C)C)CN2C(=O)[C@H](CCc2ccc(Cl)c(Cl)c2)NC(=O)CN(C)C(=O)[C@H](Cc2ccc(C(F)(F)F)cc2)N2CC/C=C\C[C@@H](C2=O)N(C)C(=O)CN(C)C1=O [PP2671] | 26.3 | A (a compound having 10 or more and less than 20 is denoted as A) | – | A (a compound having 10 or more and less than 20 is denoted as A) | 0.67 | – | – | – | – |
| CCC(CC)[C@H]1C(=O)N(C)[C@H](C(=O)N(C)C)CC(=O)N(C)[C@@H](COC)C(=O)N[C@@H]([C@@H](C)CC)C(=O)N(C)CC(=O)N(C)[C@H]2C/C=C\CCN(C2=O)[C@@H](Cc2ccc(C(F)(F)F)cc2)C(=O)N(C)CC(=O)N[C@@H](CCc2ccc(Cl)c(Cl)c2)C(=O)N2C[C@H](OC(C)C)C[C@H]2C(=O)NC2(CC(C)(C)C2)C(=O)N1C [PP2533] | 20 | AA (a compound having 20 or more is denoted as AA) | – | A (a compound having 10 or more and less than 20 is denoted as A) | 0.49 | – | – | – | – |
| CCCO[C@@H]1C[C@H]2C(=O)NC3(CC(C)(C)C3)C(=O)N(C)[C@@H](C3CCCC3)C(=O)N(C)[C@H](C(=O)N(C)CC)CC(=O)N(C)[C@@H](COCC)C(=O)N[C@@H]([C@@H](C)CC)C(=O)N3C[C@@H](F)C[C@H]3C(=O)N(C)[C@H]3C/C=C\CCN(C3=O)[C@@H](Cc3ccc(C)cc3)C(=O)N(C)CC(=O)N[C@@H](CCc3ccc(C(F)(F)F)c(OC)c3)C(=O)N2C1 [PP3469] | 24.2 | A (a compound having 10 or more and less than 20 is denoted as A) | 0.56 | A (a compound having 10 or more and less than 20 is denoted as A) | – | – | – | – | – |
| CCO[C@H](C)[C@@H]1NC(=O)[C@H](CC(C)C)N(C)C(=O)C[C@@H](C(=O)N(C)C)N(C)C(=O)[C@H](C2CCCC2)N(C)C(=O)C2(CC(C)(C)C2)NC(=O)[C@@H]2C[C@H](C)CN2C(=O)[C@H](CCc2ccc(C(F)(F)F)c(OC)c2)NC(=O)CN(C)C(=O)[C@H](Cc2ccc(C)cc2)N2CC/C=C\C[C@@H](C2=O)N(C)C(=O)[C@@H]2CCCN2C1=O [PP2418] | 132 | A (a compound having 10 or more and less than 20 is denoted as A) | – | B (a compound having 3 or more and less than 10 is denoted as B) | 0.97 | – | – | – | – |
| CCOC[C@H]1C(=O)N[C@@H]([C@@H](C)CC)C(=O)N(C)CC(=O)N(C)[C@H]2C/C=C\CCN(C2=O)[C@@H](Cc2ccc(C)cc2)C(=O)N(C)CC(=O)N[C@@H](CCc2cc(F)c(C(F)(F)F)c(F)c2)C(=O)N2C[C@H](OCC)C[C@H]2C(=O)NC2(CC(C)(C)C2)C(=O)N(C)[C@@H](C2CCCC2)C(=O)N(C)[C@H](C(=O)N(CC)CC)CC(=O)N1C [PP2408] | 21.3 | A (a compound having 10 or more and less than 20 is denoted as A) | – | A (a compound having 10 or more and less than 20 is denoted as A) | 0.23 | – | – | – | – |
| CCC[C@H]1C(=O)N[C@@H]([C@@H](C)CC)C(=O)N(C2CC2)CC(=O)N(C)[C@H]2C/C=C\CCN(C2=O)[C@@H](Cc2ccc(C(F)(F)F)cc2)C(=O)N(C)CC(=O)N[C@@H](CCc2ccc(C(F)(F)F)c(OC)c2)C(=O)N2C[C@H](OCC)C[C@H]2C(=O)NC2(CC(C)(C)C2)C(=O)N(C)[C@@H](CC(C)(C)C)C(=O)N(C)[C@H](C(=O)N(C)C)CC(=O)N1C [PP2746] | 10.2 | A (a compound having 10 or more and less than 20 is denoted as A) | – | A (a compound having 10 or more and less than 20 is denoted as A) | 0.28 | – | – | – | – |
| CCC[C@@H]1NC(=O)C[C@@H](C(=O)N(C)C)N(C)C(=O)[C@H](C2CCCC2)N(C)C(=O)C2(CC(C)(C)C2)NC(=O)[C@@H]2C[C@@H](OCC)CN2C(=O)[C@H](CCc2cc(F)c(C(F)(F)F)c(F)c2)NC(=O)CN(C)C(=O)[C@H](Cc2ccc(C(F)(F)F)cc2)N2CC/C=C\C[C@@H](C2=O)N(C)C(=O)CN(C)C(=O)[C@H]([C@@H](C)CC)NC1=O [PP3457] | 13.2 | AA (a compound having 20 or more is denoted as AA) | 0.16 | A (a compound having 10 or more and less than 20 is denoted as A) | – | – | – | – | – |
| CCOC[C@H]1C(=O)N[C@@H]([C@@H](C)CC)C(=O)N(C)CC(=O)N(C)[C@H]2C/C=C\CCN(C2=O)[C@@H](CC2CCC(F)(F)CC2)C(=O)N(C)CC(=O)N[C@@H](CCc2cc(F)c(C(F)(F)F)c(F)c2)C(=O)N2C[C@@H](C)C[C@H]2C(=O)NC2(CC(C)(C)C2)C(=O)N(C)[C@@H](C(CC)CC)C(=O)N(C)[C@H](C(=O)N(C)C)CC(=O)N1C [PP2462] | 87.2 | A (a compound having 10 or more and less than 20 is denoted as A) | – | A (a compound having 10 or more and less than 20 is denoted as A) | 1.6 | – | – | – | – |
| CCO[C@@H]1C[C@H]2C(=O)NC3(CCC3)C(=O)N(C)[C@@H](C(CC)CC)C(=O)N(C)[C@H](C(=O)N3CCCC3)CC(=O)N(C)[C@@H](COC)C(=O)N[C@@H]([C@@H](C)CC)C(=O)N(C)CC(=O)N(C)[C@H]3C/C=C\CCN(C3=O)[C@@H](CC3CCCCC3)C(=O)N(C)CC(=O)N[C@@H](CCc3cc(F)c(C(F)(F)F)c(F)c3)C(=O)N2C1 [PP1438] | – | – | – | – | – | 89.4 | AA (a compound having 20 or more is denoted as AA) | 0.55 | A (a compound having 10 or more and less than 20 is denoted as A) |
| CCO[C@@H]1C[C@H]2C(=O)NC3(CCC3)C(=O)N(C)[C@@H](C(CC)CC)C(=O)N(C)[C@H](C(=O)N(C)C)CC(=O)N(C)[C@@H](CC3CC3)C(=O)N[C@@H]([C@@H](C)CC)C(=O)N(C)CC(=O)N(C)[C@H]3C/C=C\CCN(C3=O)[C@@H](Cc3ccc(C(F)(F)F)cc3)C(=O)N(C)CC(=O)N[C@@H](CCc3ccc(C(F)(F)F)c(OC)c3)C(=O)N2C1 [PP1211] | – | – | – | – | – | 26.8 | A (a compound having 10 or more and less than 20 is denoted as A) | 0.27 | B (a compound having 3 or more and less than 10 is denoted as B) |
| CCCOC[C@H]1C(=O)N[C@@H](C2CCCC2)C(=O)N(CCC)CC(=O)N(C)[C@H]2C/C=C\CCN(C2=O)[C@@H](Cc2ccc(C(F)F)cc2)C(=O)N(C)CC(=O)N[C@@H](CCc2cc(F)c(C(F)(F)F)c(F)c2)C(=O)N2C[C@H](OCC)C[C@H]2C(=O)N(C)C2(CCC2)C(=O)N(C)[C@@H](C(CC)CC)C(=O)N(C)[C@H](C(=O)N(C)C)CC(=O)N1C [PP3507] | 29.8 | A (a compound having 10 or more and less than 20 is denoted as A) | 0.9 | A (a compound having 10 or more and less than 20 is denoted as A) | – | – | – | – | – |
| CCC[C@H]1C(=O)N[C@@H]([C@@H](C)CC)C(=O)N(C)CC(=O)N(C)[C@H]2C/C=C\CCN(C2=O)[C@@H](Cc2ccc(C)cc2)C(=O)N(C)CC(=O)N[C@@H](CCc2ccc(C(F)(F)F)c(Cl)c2)C(=O)N2CC3(CC3)C[C@H]2C(=O)NC2(CCC2)C(=O)N(C)[C@@H]([C@@H](C)CC)C(=O)N(C)[C@H](C(=O)N(C)C)CC(=O)N1C [PP3426] | 17.2 | A (a compound having 10 or more and less than 20 is denoted as A) | 0.36 | A (a compound having 10 or more and less than 20 is denoted as A) | – | – | – | – | – |
